{"source": "patent US20230123140A1", "about": "“DOSE TREATMENTS OF TAUOPATHIES” (AC Immune SA, priority 2020, published 2023)", "key": {"Gottingen mini-pig": {"test_system": "Gottingen mini-pig", "assay": "in vivo", "conditions": "minipig", "description": "(§1) This study was conducted to evaluate the potential toxicity of ACI-3024 in a non-rodent species when given daily to Gottingen mini-pig for 4 weeks, followed by a 2-week recovery period.\n(§2) Doses tested, 50, 150 and 450 mg/kg were given by p.o. to 3 animals/sex/group daily. The control animals were administered vehicle. The dose volume was 5 mL/kg for all groups.\n(§3) Clinical signs, body weights, food consumption, electrocardiography, ophthalmology and clinical pathology were evaluated. For each sex/group, a complete necropsy was conducted on 3 animals at the end of the dosing period and on 2 (only control and high dose groups) surviving animals at end of the recovery period."}, "in vivo": {"assay": "in vivo", "design": "species or system mini-pig", "conditions": "both sexes, Gottingen, minipig, po", "description": "as §1, §2, §3"}, "[1]": {"assay": "Toxicokinetics in the 4-week mini-pig toxicity study", "assay_type": "in vivo", "conditions": "for AUC(0-t) / Cmax / Tmax: Gottingen, minipig, plasma, Day 28, 450 mg/kg oral", "description": "as §2\nToxico Kinetic (TK) was evaluated on all animals on study Day 1 and Day 28 at different time points."}, "[2]": {"assay": "CSF concentrations of ACI-3024 in MAD cohort MAD-HV3", "assay_type": "in vivo", "description": "Methods for measuring the amount of administered compound, such as ACI-3024, in CSF of a subject are well know in the art. As an example, CSF can be drawn by lumbar puncture and content of the administered compound can be analysed by a LC-MS/MS method, among other methods.\n(§4) Cohorts MAD-HV1 to MAD-HV3 comprised 10 elderly non-Japanese male or female subjects, 8 were treated with ACI-3024 and 2 were being given placebo. Cohort MAD-HV4 comprised 5 non-elderly Japanese subjects (4 treated with ACI-3024 and 1 given placebo) and 5 […] (4 treated with ACI-3024 and 1 given placebo). Only subjects from MAD HV3 cohort underwent CSF samplings to explore the CSF inflammatory markers, CSF PK, and CSF PD of ACI-3024. For all subjects, dosing was on […], inclusive, and a final single dose administration occurred on […]. Dose in cohort MAD HV1 was 500 mg of ACI-3024 or placebo, QD, fasted. Dose in cohorts MAD HV2 and MAD HV4 was 500 mg of ACI-3024 or placebo, BID (“bis in die” ie., twice a day), fed. Dose in cohort MAD HV3 was 1400 mg of ACI-3024 or placebo, QD (“quaque die” (once a day), fed."}, "[3]": {"assay": "Pharmacokinetics in SAD and MAD studies (plasma, urine)", "assay_type": "in vivo", "description": "Secondary Objectives: • To assess the PK of ACI-3024 in plasma, urine, and cerebrospinal fluid (CSF). • To compare the plasma and urine PK parameters of ACI-3024 following single oral doses in the fed and fasting states.\n(§5) In each of Cohorts S1 to S5, 6 subjects (including 3 Japanese subjects in Cohorts S2 through S5) received ACI-3024 and 2 subjects (including 1 Japanese subject in Cohorts S2 through S5) received placebo. All doses were administered in the fasting state in accordance with a randomization schedule on the morning of Day 1, except for subjects in the food-effect cohort (Cohort S4), who were dosed 30 minutes after starting a high-fat breakfast in Treatment Period 2 only. Each subject received only a single dose of ACI-3024 or placebo during the study, except for subjects in the food effect cohort, who received a single dose of ACI-3024 or placebo in the fasting state followed by a single dose of ACI-3024 in the fed state. Thus, subjects in Cohort S4 received either 2 identical doses of ACI-3024 (6 subjects) or 1 dose of placebo and 1 dose of ACI-3024 (2 subjects). Six subjects of Cohort S4 received 750 mg dose of ACI-3024 and 2 subjects received placebo. After a period of wash-up all 8 subjects of Cohort S4 received a fat-breakfast and a 750 mg dose of ACI-3024.\nas §4"}, "healthy subjects": {"test_system": "healthy subjects", "assay": "First-in-human study, single ascending dose (SAD) part: safety and tolerability", "assay_type": "in vivo", "conditions": "for number of AEs: healthy subjects", "text": "A First-In-Human, Randomized, Placebo-Controlled, Double-Blind, SAD/MAD Study to Assess the Safety, Tolerability, Pharmacokinetics, and Pharmacodynamics of ACI-3024\nThe objective of the study is to assess the safety, tolerability, pharmacokinetics (PK), and pharmacodynamics (PD) of single ascending doses (SAD) and multiple ascending doses (MAD) of ACI-3024 in a first-in-human, randomized, placebo-controlled, double-blind, sequential SAD/MAD study with open-label food effect and pharmacodynamic assessment arms. The study comprises different parts to be conducted in Healthy Volunteers: • 1) one Single Ascending Dose (SAD) part in which several cohorts are being investigated with single ascending doses of ACI-3024. The food effect is also explored in this part. • 2) one Multiple Ascending Dose (MAD) part in which several cohorts are being investigated with multiple ascending doses of ACI-3024. Each study part is assessing the safety, tolerability, pharmacokinetics and pharmacodynamics of ACI-3024.\nThis part comprised a single dose, sequential group design. Overall, 40 healthy non-elderly male subjects were enrolled in 5 cohorts (Cohorts S1 to S5), with each cohort consisting of 8 subjects.\nNo Japanese subjects were enrolled in Cohort S1. For Cohorts S2 through S5, 4 Japanese subjects and 4 non Japanese subjects were enrolled.\nas §5\nThe total duration of study participation for each subject (from Screening through Follow-up visit) was approximately 37 days, except for subjects in the food-effect cohort (Cohort S4), for whom the total duration was up to approximately 44 days."}, "[4]": {"conditions": "both sexes, average M/F minipigs"}, "[5]": {"conditions": "statistical assessment, healthy volunteers"}}, "note": "Values joined by “and” are separate entries in the source; they are usually repeats but may differ in a detail not shown here. Identical values can stand only once. Like-named read-outs stand apart in the source and are kept apart here."}
{"molecule": "Fc1ccc2c3c([nH]c2c1)CCN(c1ccc2oc(N4CCOCC4)nc2c1)C3", "note": "[ACI-3024]", "values": [{"measurement": "body weight gain", "setting": "Gottingen mini-pig", "result": "minimal test item-related reduction"}, {"measurement": "NOAEL at 4 weeks", "setting": "in vivo", "result": 450, "unit": "mg/kg"}, {"measurement": "dose proportionality of plasma exposure", "setting": "[1]; 50 to 450 mg/kg, except males on Day 1", "result": "approximately dose-proportionally"}, {"measurement": "AUC(0-t)", "setting": "[1]; female minipigs", "result": 101, "unit": "µg·h/mL"}, {"measurement": "Cmax", "setting": "[1]; female minipigs", "result": 7.35, "unit": "µg/mL"}, {"measurement": "Tmax", "setting": "[1]; female minipigs", "result": 4, "unit": "h"}, {"measurement": "AUC(0-t)", "setting": "[1]; male minipigs", "result": 233, "unit": "µg·h/mL"}, {"measurement": "Cmax", "setting": "[1]; male minipigs", "result": 12.3, "unit": "µg/mL"}, {"measurement": "Tmax", "setting": "[1]; male minipigs", "result": 6, "unit": "h"}, {"measurement": "AUC(0-t)", "setting": "[1]; [4]", "result": 167, "unit": "µg·h/mL"}, {"measurement": "Cmax", "setting": "[1]; [4]", "result": 9.84, "unit": "µg/mL"}, {"measurement": "Tmax", "setting": "[1]; [4]", "result": 5, "unit": "h"}, {"measurement": "CSF pre-dose concentrations versus target", "setting": "[2]; MAD, 1400 mg, target established in animal models", "result": "> 30", "unit": "nM"}, {"measurement": "Kp", "setting": "[2]; both sexes, human, CSF, oral, elderly subjects, multiple doses of 1400 mg QD (fed), read-out: CSF concentration as share of the corresponding plasma concentration", "result": "0.003 to 0.015"}, {"measurement": "dose that would provide sufficient CSF exposure (30 nM)", "setting": "[2]; extrapolated from 1400 mg CSF data", "result": "300 to 400", "unit": "mg/day"}, {"measurement": "pre-dose (Cmin) CSF concentration", "setting": "[2]; multiple oral doses of 1400 mg, Day 7", "result": "36.4±13.6 ng/mL and 90 nM"}, {"measurement": "Tmax", "setting": "[3]; both sexes, human, plasma, oral, fasting state, single or multiple doses, read-out: median time of maximum observed plasma concentration (Tmax)", "result": "1.25 to 2.5", "unit": "h"}, {"measurement": "half-life", "setting": "[3]; both sexes, human, plasma, oral, following 14 days of multiple dosing, when calculable, read-out: geometric mean t1/2", "result": "47.5 to 101", "unit": "h"}, {"measurement": "food effect on rate of absorption", "setting": "[3]; fed vs fasting state", "result": "reduced the rate of absorption"}, {"measurement": "food effect: increase of overall exposure", "setting": "[3]; fed vs fasting state", "result": "approximately 3 fold"}, {"measurement": "excretion in urine", "setting": "[3]; healthy volunteers", "result": "Only a small amount"}, {"measurement": "half-life", "setting": "[3]; human, plasma, oral, humans, read-out: plasma half-life", "result": "> 24", "unit": "h"}, {"measurement": "half-life", "setting": "[3]; male, human, plasma, oral, following single dose administration, read-out: geometric mean t1/2", "result": "27.7 to 60.5", "unit": "h"}, {"measurement": "accumulation", "setting": "[3]; multiple dosing, QD or BID regimen", "result": "evidence of accumulation"}, {"measurement": "dose proportionality of AUC0-tlast and AUC0-∞", "setting": "[3]; [5]", "result": "dose-proportional increase"}, {"measurement": "dose proportionality of Cmax", "setting": "[3]; [5]", "result": "subproportional increase"}, {"measurement": "SAEs or AEs leading to discontinuation", "setting": "healthy subjects; SAD cohorts, 25 to 1500 mg", "result": "no SAEs or AEs leading to discontinuation from the study"}, {"measurement": "vital signs, ECG values, physical or neurological examinations", "setting": "healthy subjects; SAD cohorts, 25 to 1500 mg", "result": "no clinically significant observations"}, {"measurement": "severity of AEs", "setting": "healthy subjects; SAD cohorts, 25 to 1500 mg (all AEs of the part, placebo included)", "result": "mild"}, {"measurement": "overall safety and tolerability", "setting": "healthy subjects; SAD study, up to the highest administered dose of 1500 mg", "result": "safe and well tolerated"}, {"measurement": "number of AEs", "setting": "healthy subjects; single oral dose 25 mg", "result": 2}, {"measurement": "number of AEs", "setting": "healthy subjects; single oral dose 100 mg", "result": 0}, {"measurement": "number of AEs", "setting": "healthy subjects; single oral dose 300 mg", "result": 3}, {"measurement": "number of AEs", "setting": "healthy subjects; single oral dose 750 mg (fed and fasted states)", "result": 6}, {"measurement": "number of AEs", "setting": "healthy subjects; single oral dose 1500 mg", "result": 2}]}
